Our source for the EC50 and Emax values is patent publication US5672710A, “Sulfides, sulfoxides and sulfones disubstituted with a tetrahydronaphthalenyl, chromanyl, thiochromanyl or tetrahydroquinolinyl and substituted phenyl or heteroaryl group, having retinoid-like biological activity” (priority 1995, dated 1997).

One assay deals with T1, RXRβ (Mus musculus, UniProt P28704).
T1 construct: expressed in transfected cells; host or cells: CV1
T1 sequence (P28704 1-520): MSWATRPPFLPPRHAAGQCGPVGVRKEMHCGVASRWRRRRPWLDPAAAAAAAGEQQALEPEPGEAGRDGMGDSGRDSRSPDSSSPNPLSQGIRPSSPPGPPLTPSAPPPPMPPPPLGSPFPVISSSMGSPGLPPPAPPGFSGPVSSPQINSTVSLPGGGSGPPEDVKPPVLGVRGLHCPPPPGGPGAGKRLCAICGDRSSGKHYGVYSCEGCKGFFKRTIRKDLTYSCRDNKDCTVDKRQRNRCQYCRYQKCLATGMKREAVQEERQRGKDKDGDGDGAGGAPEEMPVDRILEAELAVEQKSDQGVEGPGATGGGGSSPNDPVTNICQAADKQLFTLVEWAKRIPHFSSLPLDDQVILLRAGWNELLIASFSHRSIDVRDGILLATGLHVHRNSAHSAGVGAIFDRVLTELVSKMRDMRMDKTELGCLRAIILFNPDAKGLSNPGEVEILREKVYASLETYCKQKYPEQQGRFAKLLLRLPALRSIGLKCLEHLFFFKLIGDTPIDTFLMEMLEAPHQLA
In words: Holoreceptor transactivation assay, RXRβ. Conditions: CV1 cells; for EC50: 36 hours; for Emax: CV-1, relative to all trans retinoic acid, read-out: Transactivation Assay Efficacy (% of RA activity), RXRβ. Format: cell-based. From the text:
(§1) A holoreceptor transactivation assay and a ligand binding assay which measure the ability of the compounds of the invention to bind to the several retinoid receptor subtypes, respectively, are described in published PCT Application No. WO W093/11755 (particularly on pages 30-33 and 37-41) published on Jun. 24, 1993, the specification of which is also incorporated herein by reference. A description of the holoreceptor transactivation assay is also provided below.
(§2) CV1 cells (5,000 cells/well) were transfected with an RAR reporter plasmid MTV-TREp-LUC (50 ng) along with one of the […] expression vectors (10 ng) in an automated 96-well format by the calcium phosphate procedure of Heyman et al. Cell 68, 397-406. (8). For RXRα and RXR.GAMMA. transactivation assays, an RXR-responsive reporter plasmid CRBPII-tk-LUC (50 ng) along with the appropriate RXRexpression vectors (10 ng) was used substantially as described by Heyman et al. above, and Allegretto et al. J. Biol. Chem. 268, 26625-26633. For RXRβ transactivation assays, an RXR-responsive reporter plasmid CPRE-tk-LUC ([…]) along with RXRβ expression vector ([…]) was used as described in above. These reporters contain DRI elements from human CRBPII and certain DRI elements from promoter, respectively. (see Mangelsdorf et al. The Retinoids: Biology, Chemistry and Medicine, pp 319-349, Raven Press Ltd., New York and Heyman et al., cited above) (1, 8). A β-galactosidase (50 ng) expression vector was used as an internal control in the transfections to normalize for variations in transfection efficiency. The cells were transfected in triplicate for 6 hours, followed by incubation with retinoids for 36 hours, and the extracts were assayed for luciferase and β-galactosidase activities. The detailed experimental procedure for holoreceptor transactivations has been described in Heyman et al. above, and Allegretto et al. cited above. The results obtained in this assay in connection with examplary compounds in accordance with the present invention are expressed in EC50 numbers, as they are also in the chimeric receptor transactivation assay. The Heyman et al. Cell 68, 397-406, Allegretto et al. J. Biol. Chem. 268, 26625-26633, and Mangelsdorf et al. The Retinoids: Biology, Chemistry and Medicine, pp 319-349, Raven Press Ltd., New York, are expressly incorporated herein by reference. The results of ligand binding assay are expressed in Kd numbers. (See Cheng et al. Biochemical Pharmacology Vol. 22 pp 3099-3108, expressly incorporated herein by reference.)

The target of the next assay is T2, RXRγ (Mus musculus, UniProt P28705).
T2 construct: expressed in transfected cells; host or cells: CV1
T2 sequence (P28705 1-463): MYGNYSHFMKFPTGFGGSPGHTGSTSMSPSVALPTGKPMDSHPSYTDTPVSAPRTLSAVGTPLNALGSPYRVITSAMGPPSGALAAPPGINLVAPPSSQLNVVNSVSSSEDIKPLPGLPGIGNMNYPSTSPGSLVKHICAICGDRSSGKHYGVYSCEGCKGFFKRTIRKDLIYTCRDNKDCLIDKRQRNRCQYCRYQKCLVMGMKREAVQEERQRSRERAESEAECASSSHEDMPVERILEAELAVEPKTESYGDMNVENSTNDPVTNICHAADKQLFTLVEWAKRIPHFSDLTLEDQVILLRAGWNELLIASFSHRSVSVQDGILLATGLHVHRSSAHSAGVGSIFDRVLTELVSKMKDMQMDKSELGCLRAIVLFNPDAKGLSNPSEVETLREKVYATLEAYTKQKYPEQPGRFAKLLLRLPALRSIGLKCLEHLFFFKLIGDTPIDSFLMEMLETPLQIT
In words: Holoreceptor transactivation assay, RXRγ. Format: cell-based. As to conditions: CV1 cells; for EC50: 36 hours; for Emax: CV-1, relative to all trans retinoic acid, read-out: Transactivation Assay Efficacy (% of RA activity), RXRγ.
Text: as §1, §2

Take `CC1(C)CCC(C)(C)c2cc(Sc3ccc(C(=O)O)cc3)ccc21` [Compound 2]: on RXRβ, the EC50 was 1.6 µM and the Emax was 80%.

Regarding `CC1(C)CCC(C)(C)c2cc(S(=O)(=O)c3ccc(C(=O)O)cc3)ccc21` [Compound 5, 4-(5,6,7,8-tetrahydro-5,5,8,8-tetramethyl-2-naphthylsulfonyl)benzoic acid], at RXRβ, the Emax was determined as 11%. For the same compound, on RXRγ, the concentration giving a half-maximal response (EC50) was determined as 2.6 µM and the Emax amounted to 26%.

In the case of `Cc1cc2c(cc1Sc1ccc(C(=O)O)cc1)C(C)(C)CCC2(C)C` [Compound 7, 4-(5,6,7,8-tetrahydro-3,5,5,8,8-pentamethyl-2-Daphthylthio)benzoic acid], at RXRβ, the EC50 was found to be 0.32 µM and the Emax is 114%. At RXRγ, a half-maximal response (EC50) required 0.23 µM and the Emax came out at 67%.

On to `Cc1cc2c(cc1[S+]([O-])c1ccc(C(=O)O)cc1)C(C)(C)CCC2(C)C` (stereo not shown) [Compound 9, 4-(5,6,7,8-tetrahydro-3,5,5,8,8-pentamethyl-2-naphthylsulfoxy)benzoic acid], for which the EC50 at RXRβ was determined as 3 µM; at RXRγ it was 1.6 µM. Moreover, the results for the Emax at RXRβ and on RXRγ were 29% and 28%, respectively.

With `Cc1cc2c(cc1Sc1ccc(C(=O)O)cn1)C(C)(C)CCC2(C)C` [Compound 13], at RXRγ, it took 0.042 µM to reach a half-maximal effect (EC50) and the Emax is 85%.

On to `Cc1cc2c(cc1Sc1ncc(C(=O)O)s1)C(C)(C)CCC2(C)C` [Compound 15, 2-(5,6,7,8-Tetrahydro-3,5,5,8,8-pentamethyl-2-naphthylthio)-5-thiazolecarboxylic acid], for which, at RXRβ, the response was half-maximal at 1.3 µM (EC50) and the Emax stood at 117%. On RXRγ, a half-maximal effect (EC50) was put at 1.9 µM and the Emax is 70%.

For orientation: EC50 means the concentration at which the effect is half-maximal. Low values mean a more potent agent, high ones a less potent agent.
